Assay results: patent publication US9724337B2, “AG-205 for the treatment of breast cancer” (University of Kentucky Research Foundation, priority 2009, dated 2017)

Tests used:
A549 cells = experiment: Viability of A549 cells; type: cell-based, human; conditions: A549 cells, single agent
Method: (A) Pgrmc1 (SEQ ID NO: 7) shares homology with AtMAPR2 (SEQ ID NO: 8) (underlined residues), which was the target for a screen for small molecule ligands. The putative heme-binding Tyr106 and Tyr112 are indicated with black boxes. (B) The molecular structure of AG-205 includes multiple aromatic components. (C) Spectroscopic scan of Pgrmc1 with vehicle control compared with vehicle plus 50 µM AG-205. The decrease in relative absorbance at 400 nm is consistent with an AG-205-induced change in the spectral properties of Pgrmc1-heme. The scan is representative of four separate scans using different Pgrmc1 protein preparations. The lower scan is a comparison of purified Pgrmc1 without and with the vehicle control (DMSO). Panels D (A549 cells) and E (MDA-MB-231 cells) are viability assays of cells maintained in 0.1% serum (solid line) or 10% serum (dashed line) and treated with increasing doses of AG-205. Percent viability was determined by cell counting, and “% viability” refers to the cell number relative to the untreated control.
(§1) Tissue culture. MDA-MB-468 cells were a kind gift from Dr. Rina Plattner of the University of Kentucky and were maintained in medium consisting of Dulbecco's Modified Eagle Medium containing 10% serum supreme (Fisher) and antibiotics. Cells were grown at 37° C. in 5% CO2 in air. A549 and HCC827 lung cancer cells, as well as SK-Br-3 breast cancer cells were obtained from the ATCC (American Type Culture Collection) and were grown under the same conditions. The H1650 lung cancer cell line was a kind gift from Dr. Heinz Kohler of the University of Kentucky. The Pgrmc1 ligand AG-205 was purchased from Timtec, Inc. The EGFR inhibitor AG1478 was from Biomol, Inc. and was used at a concentration range of 0.8-40 μM.
(§2) Proliferation, anchorage-independent growth and migration assays. For growth curves, cells were plated in 24 well dishes and grown in 10% serum-containing medium. At various times, the cells were harvested with trypsin and fixed with formaldehyde added to a final concentration of 3.7%. Following the harvest of the final time point, the cells from each time point were counted using a Bright-line hemocytometer (Hausser Scientific).
(§3) MTT viability assays were performed as described previously. Briefly, cells were plated in 96-well tissue culture dishes and grown in various media with different drug doses. The cells were then incubated with 0.5 mg/ml of 3-[4,5-dimethylthiazol-2-y]-2,5-diphenyltetrazolium bromide for 1.5 hours, at which time the media was removed, the precipitated crystals were dissolved in dimethyl sulfoxide, and the absorbance at 590 nm was measured using a Bio-Tek μQuant spectrophotometer.

MDA-MB-468 cells = experiment: Viability / proliferation of MDA-MB-468 cells; type: cell-based, human; conditions: MDA-MB-468 cells, increasing doses of AG1478, MTT assay
Method: as §1, §2, §3

COc1cc2ncnc(Nc3cccc(Cl)c3)c2cc1OC [AG1478, reference compound]
decrease in viability / cells killed (A549 cells): 25% | change in proliferation rate between siCON and siPGR-transfected cells (MDA-MB-468 cells): largely blocked
